The numbers were not newly measured in patent US20230240292A1, “METHOD FOR GROWING PLANTS” (Taminco BV, priority 2020, published 2023), which cites them from elsewhere.

Where two headings read alike, the source gives them in different places.

One data set concerns cauliflower seedlings. The conditions noted are these: seedlings treated with 20 mM BABA.

For `CC/C=C\C[C@H]1C(=O)CC[C@@H]1CC(=O)O` [JA, jasmonic acid], the “Root growth repression (in words)” value in the data set on Tomato plants (seedlings treated with as low as 0.25 mM JA) is given as “root growth repression was observed”.

As for `CC(N)CC(=O)O` (racemic) [BABA, beta-aminobutyric acid], the “Reduction in growth of cauliflower seedlings” value with cauliflower seedlings is 14.7%. Besides, in the data set on Tomato plants (seedlings treated with as low as 0.5 mM BABA), the “Root growth repression (in words)” value is “root growth repression was observed”.
